Our source for the IC50 and inhibition values is patent publication US8436043B2 (Takeda Pharmaceutical Company Limited, priority 2008, dated 2013).

Structures are written as SMILES.

The target in the first assay is T1, human glucagon receptor (Homo sapiens, UniProt P47871).
T1 construct: made in house; host or cells: FreeStyle CHO cells, transient transfection with pMSRαneo/hGCGR; membrane fraction (35,000 rpm pellet)
T1 sequence (P47871 26-477): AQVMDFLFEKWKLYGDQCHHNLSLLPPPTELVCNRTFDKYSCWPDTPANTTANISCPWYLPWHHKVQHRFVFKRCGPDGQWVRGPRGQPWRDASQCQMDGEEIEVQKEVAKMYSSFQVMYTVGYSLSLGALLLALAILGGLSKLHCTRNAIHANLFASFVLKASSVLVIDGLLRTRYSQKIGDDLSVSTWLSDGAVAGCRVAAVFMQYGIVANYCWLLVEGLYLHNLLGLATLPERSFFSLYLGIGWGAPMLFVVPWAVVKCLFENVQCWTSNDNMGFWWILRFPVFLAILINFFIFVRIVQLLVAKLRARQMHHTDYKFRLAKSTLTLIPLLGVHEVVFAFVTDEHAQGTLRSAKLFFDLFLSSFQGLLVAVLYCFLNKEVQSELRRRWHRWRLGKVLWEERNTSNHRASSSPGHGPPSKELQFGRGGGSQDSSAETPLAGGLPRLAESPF
Description: Glucagon binding inhibitory activity ([125I]-glucagon binding to glucagon receptor membrane protein). The settings on record: human glucagon receptor membrane protein, [125I]-glucagon, 90 min room temperature. In a few lines:
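Receptor source was a membrane fraction of transiently transfected CHO cells bearing human receptor; 90 min room-temperature binding, filtration harvest, scintillation counting.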
On to `Cn1c(C(Nc2ccc(C(=O)NCCC(=O)O)cc2)C2CCCCC2)nc2ccccc21` (stereo not drawn) [Example A3, 3-{[(4-{[cyclohexyl(1-methyl-1H-benzimidazol-2-yl)methyl]amino}phenyl)carbonyl]amino}propanoic acid], for which the IC50 (in general, the concentration needed to halve the response being measured) turned out to be 1700 nM.
The same measure, in the same setting: the result for `CN(CCC(=O)O)C(=O)c1ccc(NC(c2nn(C)c3ccccc23)C2CCCCC2)cc1` (stereo not drawn) [Example A7, 3-{[(4-{[cyclohexyl(1-methyl-1H-indazol-3-yl)methyl]amino}phenyl)carbonyl](methyl)amino}propanoic acid] reads 1800 nM; that for `O=C(O)CCNC(=O)c1ccc(NC(c2cc3ccc(C(F)(F)F)cc3s2)C2CCCCC2)cc1` (stereo not drawn) [Example A12, 3-({[4-({cyclohexyl[6-(trifluoromethyl)-1-benzothiophen-2-yl]methyl}amino)phenyl]carbonyl}amino)propanoic acid], 210 nM.

Staying with this assay, now noted: test compound 10 μM; 0.4% DMSO = 0%, non-labeled glucagon 1 μM = 100%; read-out: inhibitory rate (%) at 10 μM.
Turning to `COc1ccccc1-n1cc(C)c(C(Nc2ccc(C(=O)N(C)CCC(=O)O)cc2)C2CCCCC2)n1` (stereo not drawn) [Example 77, 3-[{[4-({cyclohexyl[1-(2-methoxyphenyl)-4-methyl-1H-pyrazol-3-yl]methyl}amino)phenyl]carbonyl}(methyl)amino]propanoic acid], the inhibition at 10 µM was found to be 55%.
Take `CCc1nn(-c2cccc(OC)c2)cc1C(Nc1ccc(C(=O)N(C)CCC(=O)O)cc1)C1CCCCC1` (stereo not drawn) [Example 78, 3-[{[4-({cyclohexyl[3-ethyl-1-(3-methoxyphenyl)-1H-pyrazol-4-yl]methyl}amino)phenyl]carbonyl}(methyl)amino]propanoic acid]: the inhibition at 10 µM worked out at 69%.
Take `COc1cccc(-n2cc(C(Nc3ccc(C(=O)N(C)CCC(=O)O)cc3)C3CCCCC3)c(C(C)C)n2)c1` (stereo not drawn) [Example 79, 3-[{[4-({cyclohexyl[1-(3-methoxyphenyl)-3-(1-methylethyl)-1H-pyrazol-4-yl]methyl}amino)phenyl]carbonyl}(methyl)amino]propanoic acid]: the inhibition at 10 µM stood at 67%.
In the case of `COc1cc(OC)cc(-n2cc(C(Nc3ccc(C(=O)N(C)CCC(=O)O)cc3)C3CCCCC3)c(C)n2)c1` (stereo not drawn) [Example 81, 3-[{[4-({cyclohexyl[1-(3,5-dimethoxyphenyl)-3-methyl-1H-pyrazol-4-yl]methyl}amino)phenyl]carbonyl}(methyl)amino]propanoic acid], the inhibition at 10 µM worked out at 82%.
Same read-out and setting: in the case of `COc1cc(OC)cc(-n2cc(C(Nc3ccc(C(=O)NCCC(=O)O)cc3)C3CCCCC3)c(C)n2)c1` (stereo not drawn) [Example 82, 3-({[4-({cyclohexyl[1-(3,5-dimethoxyphenyl)-3-methyl-1H-pyrazol-4-yl]methyl}amino)phenyl}carbonyl]amino)propanoic acid] it was 78%; in that of `CCOc1cccc(-n2cc(C(Nc3ccc(C(=O)N(C)CCC(=O)O)cc3)C3CCCCC3)c(CC)n2)c1` (stereo not drawn) [Example 83, 3-[{[4-({cyclohexyl[1-(3-ethoxyphenyl)-3-ethyl-1H-pyrazol-4-yl]methyl}amino)phenyl]carbonyl}(methyl)amino]propanoic acid], 78%.
With `CCOc1cccc(-n2cc(C(Nc3ccc(C(=O)NCCC(=O)O)cc3)C3CCCCC3)c(CC)n2)c1` (stereo not drawn) [Example 84, 3-({[4-({cyclohexyl[1-(3-ethoxyphenyl)-3-ethyl-1H-pyrazol-4-yl]methyl}amino)phenyl]carbonyl}amino)propanoic acid], the inhibition at 10 µM was found to be 76%.
Consider `CCOc1cccc(-n2cc(C(CC(C)C)Nc3ccc(C(=O)N(C)CCC(=O)O)cc3)c(CC)n2)c1` (stereo not drawn) [Example 85, 3-[{[4-({1-[1-(3-ethoxyphenyl)-3-ethyl-1H-pyrazol-4-yl]-3-methylbutyl}amino)phenyl]carbonyl}(methyl)amino]propanoic acid], for which the inhibition at 10 µM amounted to 68%.
The same measure, in the same setting: in the case of `CCOc1cccc(-n2cc(C(CC(C)C)Nc3ccc(C(=O)NCCC(=O)O)cc3)c(CC)n2)c1` (stereo not drawn) [Example 86, 3-({[4-({1-[1-(3-ethoxyphenyl)-3-ethyl-1H-pyrazol-4-yl]-3-methylbutyl}amino)phenyl]carbonyl}amino)propanoic acid] it was 76%; in that of `CCc1nn(-c2cc(F)cc(F)c2)cc1C(Nc1ccc(C(=O)N(C)CCC(=O)O)cc1)C1CCCCC1` (stereo not drawn) [Example 87, 3-[{[4-({cyclohexyl[1-(3,5-difluorophenyl)-3-ethyl-1H-pyrazol-4-yl]methyl}amino)phenyl]carbonyl}(methyl)amino]propanoic acid], 64%.
`CCc1nn(-c2cc(F)cc(F)c2)cc1C(Nc1ccc(C(=O)NCCC(=O)O)cc1)C1CCCCC1` (stereo not drawn) [Example 88, 3-({[4-({cyclohexyl[1-(3,5-difluorophenyl)-3-ethyl-1H-pyrazol-4-yl]methyl}amino)phenyl]carbonyl}amino)propanoic acid]: the inhibition at 10 µM stood at 71%.
Take `COCc1nn(-c2cc(C(F)(F)F)ccn2)cc1C(Nc1ccc(C(=O)N(C)CCC(=O)O)cc1)C1CCCCC1` (stereo not drawn) [Example 89, 3-[({4-[(cyclohexyl{3-(methoxymethyl)-1-[4-(trifluoromethyl)pyridin-2-yl]-1H-pyrazol-4-yl}methyl)amino]phenyl}carbonyl)(methyl)amino]propanoic acid]: the inhibition at 10 µM was found to be 62%.
`COCc1nn(-c2cccc(C(F)(F)F)n2)cc1C(Nc1ccc(C(=O)N(C)CCC(=O)O)cc1)C1CCCCC1` (stereo not drawn) [Example 90, 3-[({4-[(cyclohexyl{3-(methoxymethyl)-1-[6-(trifluoromethyl)pyridin-2-yl]-1H-pyrazol-4-yl}methyl)amino]phenyl}carbonyl)(methyl)amino]propanoic acid]: the inhibition at 10 µM amounted to 66%.
With `COCc1nn(-c2cccc(C(F)(F)F)n2)cc1C(Nc1ccc(C(=O)NCCC(=O)O)cc1)C1CCCCC1` (stereo not drawn) [Example 91, 3-[({4-[(cyclohexyl{3-(methoxymethyl)-1-[6-(trifluoromethyl)pyridin-2-yl]-1H-pyrazol-4-yl}methyl)amino]phenyl}carbonyl)amino]propanoic acid], the inhibition at 10 µM came out at 71%.
Regarding `CCOc1cccc(-n2cc(C(Nc3ccc(C(=O)NCC(C)C(=O)O)cc3)C3CCCCC3)c(CC)n2)c1` (stereo not drawn) [Example 92, 3-({[4-({cyclohexyl[1-(3-ethoxyphenyl)-3-ethyl-1H-pyrazol-4-yl]methyl}amino)phenyl]carbonyl}amino)-2-methylpropanoic acid], the inhibition at 10 µM came to 56%.
In the case of `O=C(O)CCNC(=O)c1ccc(NC(c2csc3ccccc23)C2CCCCC2)cc1` (stereo not drawn) [Example A1, 3-{[(4-{[1-benzothiophen-3-yl(cyclohexyl)methyl]amino}phenyl)carbonyl]amino}propanoic acid], the inhibition at 10 µM came to 76%.
Turning to `CN(CCC(=O)O)C(=O)c1ccc(NC(c2csc3ccccc23)C2CCCCC2)cc1` (stereo not drawn) [Example A2, 3-{[(4-{[1-benzothiophen-3-yl(cyclohexyl)methyl]amino}phenyl)carbonyl](methyl)amino}-propanoic acid], the inhibition at 10 µM turned out to be 64%.
`Cn1c(C(Nc2ccc(C(=O)NCCC(=O)O)cc2)C2CCCCC2)nc2ccccc21` (stereo not drawn) [Example A3, 3-{[(4-{[cyclohexyl(1-methyl-1H-benzimidazol-2-yl)methyl]amino}phenyl)carbonyl]amino}propanoic acid]: the inhibition at 10 µM was 55%.
Turning to `CN(CCC(=O)O)C(=O)c1ccc(NC(c2cc3ccccc3o2)C2CCCCC2)cc1` (stereo not drawn) [Example A4, 3-{[(4-{[1-benzofuran-2-yl(cyclohexyl)methyl]amino}phenyl)carbonyl](methyl)amino}-propanoic acid], the inhibition at 10 µM is 66%.
On to `CN(CCC(=O)O)C(=O)c1ccc(NC(c2cc3ccccc3s2)C2CCCCC2)cc1` (stereo not drawn) [Example A5, 3-{[(4-{[1-benzothiophen-2-yl(cyclohexyl)methyl]amino}phenyl)carbonyl](methyl)amino}-propanoic acid], for which the inhibition at 10 µM stood at 77%.
Take `O=C(O)CCNC(=O)c1ccc(NC(c2cc3ccccc3s2)C2CCCCC2)cc1` (stereo not drawn) [Example A6, 3-{[(4-{[1-benzothiophen-2-yl(cyclohexyl)methyl]amino}phenyl)carbonyl]amino}propanoic acid]: the inhibition at 10 µM was 87%.
Turning to `CN(CCC(=O)O)C(=O)c1ccc(NC(c2nn(C)c3ccccc23)C2CCCCC2)cc1` (stereo not drawn) [Example A7, 3-{[(4-{[cyclohexyl(1-methyl-1H-indazol-3-yl)methyl]amino}phenyl)carbonyl](methyl)amino}propanoic acid], the inhibition at 10 µM was 60%.
As for `Cc1sc2ccccc2c1C(Nc1ccc(C(=O)NCCC(=O)O)cc1)C1CCCCC1` (stereo not drawn) [Example A8, 3-{[(4-{[cyclohexyl(2-methyl-1-benzothiophen-3-yl)methyl]amino}phenyl)carbonyl]amino}propanoic acid], the inhibition at 10 µM was 78%.
Regarding `Cc1sc2ccccc2c1C(Nc1ccc(C(=O)N(C)CCC(=O)O)cc1)C1CCCCC1` (stereo not drawn) [Example A9, 3-{[(4-{[cyclohexyl(2-methyl-1-benzothiophen-3-yl)methyl]amino}phenyl)carbonyl](methyl)amino}propanoic acid], the inhibition at 10 µM came out at 67%.
As for `Cc1c(C(Nc2ccc(C(=O)NCCC(=O)O)cc2)C2CCCCC2)sc2ccccc12` (stereo not drawn) [Example A10, 3-{[(4-{[cyclohexyl(3-methyl-1-benzothiophen-2-yl)methyl]amino}phenyl)carbonyl]amino}propanoic acid], the inhibition at 10 µM turned out to be 80%.
With `O=C(O)CCNC(=O)c1ccc(NC(c2cc3cc(C(F)(F)F)ccc3s2)C2CCCCC2)cc1` (stereo not drawn) [Example A11, 3-({[4-({cyclohexyl[5-(trifluoromethyl)-1-benzothiophen-2-yl]methyl}amino)phenyl]carbonyl}amino)propanoic acid], the inhibition at 10 µM worked out at 74%.
On to `O=C(O)CCNC(=O)c1ccc(NC(c2cc3ccc(C(F)(F)F)cc3s2)C2CCCCC2)cc1` (stereo not drawn) [Example A12, 3-({[4-({cyclohexyl[6-(trifluoromethyl)-1-benzothiophen-2-yl]methyl}amino)phenyl]carbonyl}amino)propanoic acid], for which the inhibition at 10 µM came to 72%.
`Cc1c(C(Nc2ccc(C(=O)N(C)CCC(=O)O)cc2)C2CCCCC2)sc2ccccc12` (stereo not drawn) [Example A13, 3-{[(4-{[cyclohexyl(3-methyl-1-benzothiophen-2-yl)methyl]amino}phenyl)carbonyl](methyl)amino}propanoic acid]: the inhibition at 10 µM came to 85%.
Turning to `O=C(O)CCNC(=O)c1ccc(NC(c2nn(-c3ccccc3)c3ccccc23)C2CCCCC2)cc1` (stereo not drawn) [Example A14, 3-{[(4-{[cyclohexyl(1-phenyl-1H-indazol-3-yl)methyl]amino}phenyl)carbonyl]amino}propanoic acid], the inhibition at 10 µM was determined as 73%.
Consider `CN(CCC(=O)O)C(=O)c1ccc(NC(c2nn(-c3ccccc3)c3ccccc23)C2CCCCC2)cc1` (stereo not drawn) [Example A15, 3-{[(4-{[cyclohexyl(1-phenyl-1H-indazol-3-yl)methyl]amino}phenyl)carbonyl](methyl)amino}propanoic acid], for which the inhibition at 10 µM was determined as 72%.
